In the CheMixHub viscosity set:

Assay: xn = mol fraction of the nth substance listed

CCCCC + CCCCCCCCCCCC
Conditions | viscosity [mPa·s]
293.15 K, 100 kPa, x1 = 0.0988 | 1.33
293.15 K, 100 kPa, x1 = 0.2004 | 1.153
293.15 K, 100 kPa, x1 = 0.2963 | 0.995
293.15 K, 100 kPa, x1 = 0.4022 | 0.847
293.15 K, 100 kPa, x1 = 0.5005 | 0.686
293.15 K, 100 kPa, x1 = 0.5989 | 0.581
293.15 K, 100 kPa, x1 = 0.7029 | 0.468
293.15 K, 100 kPa, x1 = 0.8 | 0.388
293.15 K, 100 kPa, x1 = 0.9011 | 0.304
298.15 K, 100 kPa, x1 = 0.0988 | 1.216
298.15 K, 100 kPa, x1 = 0.2004 | 1.054
298.15 K, 100 kPa, x1 = 0.2963 | 0.923
298.15 K, 100 kPa, x1 = 0.4022 | 0.79
298.15 K, 100 kPa, x1 = 0.5005 | 0.642
298.15 K, 100 kPa, x1 = 0.5989 | 0.548
298.15 K, 100 kPa, x1 = 0.7029 | 0.443
298.15 K, 100 kPa, x1 = 0.8 | 0.369
298.15 K, 100 kPa, x1 = 0.9011 | 0.289
298.15 K, 101.33 kPa, x1 = 0.1094 | 1.194
298.15 K, 101.33 kPa, x1 = 0.2073 | 1.037
298.15 K, 101.33 kPa, x1 = 0.299 | 0.9143
298.15 K, 101.33 kPa, x1 = 0.4078 | 0.7711
298.15 K, 101.33 kPa, x1 = 0.5008 | 0.6622
298.15 K, 101.33 kPa, x1 = 0.6031 | 0.5504
298.15 K, 101.33 kPa, x1 = 0.7069 | 0.4481
298.15 K, 101.33 kPa, x1 = 0.8062 | 0.3631
298.15 K, 101.33 kPa, x1 = 0.8991 | 0.2925
303.15 K, 100 kPa, x1 = 0.0988 | 1.119
303.15 K, 100 kPa, x1 = 0.2004 | 0.975
303.15 K, 100 kPa, x1 = 0.2963 | 0.857
303.15 K, 100 kPa, x1 = 0.4022 | 0.738
303.15 K, 100 kPa, x1 = 0.5005 | 0.603
303.15 K, 100 kPa, x1 = 0.5989 | 0.516
303.15 K, 100 kPa, x1 = 0.7029 | 0.42
303.15 K, 100 kPa, x1 = 0.8 | 0.358
303.15 K, 100 kPa, x1 = 0.9011 | 0.275
308.15 K, 100 kPa, x1 = 0.0988 | 1.032
308.15 K, 100 kPa, x1 = 0.2004 | 0.906
308.15 K, 100 kPa, x1 = 0.2963 | 0.8
308.15 K, 100 kPa, x1 = 0.4022 | 0.693
308.15 K, 100 kPa, x1 = 0.5005 | 0.568
308.15 K, 100 kPa, x1 = 0.5989 | 0.489
308.15 K, 100 kPa, x1 = 0.7029 | 0.399
308.15 K, 100 kPa, x1 = 0.8 | 0.34
313.15 K, 100 kPa, x1 = 0.0988 | 0.957
313.15 K, 100 kPa, x1 = 0.2004 | 0.843
313.15 K, 100 kPa, x1 = 0.2963 | 0.748
313.15 K, 100 kPa, x1 = 0.4022 | 0.65
313.15 K, 100 kPa, x1 = 0.5005 | 0.536
313.15 K, 100 kPa, x1 = 0.5989 | 0.463
313.15 K, 100 kPa, x1 = 0.7029 | 0.38
318.15 K, 100 kPa, x1 = 0.0988 | 0.89
318.15 K, 100 kPa, x1 = 0.2004 | 0.789
318.15 K, 100 kPa, x1 = 0.2963 | 0.702
318.15 K, 100 kPa, x1 = 0.4022 | 0.612
318.15 K, 100 kPa, x1 = 0.5005 | 0.507
318.15 K, 100 kPa, x1 = 0.5989 | 0.44
323.15 K, 100 kPa, x1 = 0.0988 | 0.83
323.15 K, 100 kPa, x1 = 0.2004 | 0.734
323.15 K, 100 kPa, x1 = 0.2963 | 0.66
323.15 K, 100 kPa, x1 = 0.4022 | 0.578
323.15 K, 100 kPa, x1 = 0.5005 | 0.481

CCCCC + CCCCCCCCCCCCCCCC
298.15 K, 101.33 kPa
Conditions | viscosity [mPa·s]
x1 = 0.1111 | 2.574
x1 = 0.2119 | 2.17
x1 = 0.3099 | 1.816
x1 = 0.4166 | 1.457
x1 = 0.5122 | 1.172
x1 = 0.6089 | 0.9218
x1 = 0.7034 | 0.7004
x1 = 0.8034 | 0.5086
x1 = 0.9029 | 0.3464

CS(C)=O + CCCCCCCO
101 kPa
Conditions | viscosity [mPa·s]
303.15 K, x1 = 0.1547 | 4.098
303.15 K, x1 = 0.3356 | 3.3
303.15 K, x1 = 0.4628 | 2.842
303.15 K, x1 = 0.5727 | 2.55
303.15 K, x1 = 0.6715 | 2.336
303.15 K, x1 = 0.7519 | 2.179
303.15 K, x1 = 0.8247 | 2.052
303.15 K, x1 = 0.8847 | 1.987
303.15 K, x1 = 0.9327 | 1.891
313 K, x1 = 0.1239 | 3.068
313 K, x1 = 0.2133 | 2.75
313 K, x1 = 0.2979 | 2.528
313 K, x1 = 0.4847 | 2.188
313 K, x1 = 0.5993 | 1.998
313 K, x1 = 0.7039 | 1.839
313 K, x1 = 0.8016 | 1.743
313 K, x1 = 0.9028 | 1.621

CCCCC(=O)OCC + CCCCCCO
viscosity [mPa·s], 101.33 kPa
Conditions | x1 = 0.1071 | x1 = 0.2022 | x1 = 0.3018 | x1 = 0.3929 | x1 = 0.5117 | x1 = 0.6028 | x1 = 0.7035 | x1 = 0.8025 | x1 = 0.9053
293.15 K | 3.938 | 3.209 | 2.61 | 2.177 | 1.74 | 1.483 | 1.258 | 1.086 | 0.946
303.15 K | 3.004 | 2.46 | 2.012 | 1.688 | 1.362 | 1.17 | 1.002 | 0.873 | 0.769
313.15 K | 2.257 | 1.873 | 1.558 | 1.329 | 1.1 | 0.964 | 0.846 | 0.755 | 0.682

CCCCCCCO + CCCCCCO
viscosity [mPa·s], 101.8 kPa
Conditions | x2 = 0.1128 | x2 = 0.3611 | x2 = 0.5306 | x2 = 0.6915 | x2 = 0.9117
298.15 K | 5.786 | 5.339 | 5.173 | 4.875 | 4.5
308.15 K | 4.235 | 3.946 | 3.829 | 3.625 | 3.347
318.15 K | 3.16 | 2.963 | 2.879 | 2.737 | 2.535

CS(C)=O + CCCCCCO
101 kPa
Conditions | viscosity [mPa·s]
303.15 K, x1 = 0.1678 | 2.991
303.15 K, x1 = 0.1907 | 2.831
303.15 K, x1 = 0.3273 | 2.582
303.15 K, x1 = 0.3639 | 2.288
303.15 K, x1 = 0.4458 | 2.342
303.15 K, x1 = 0.522 | 2.088
303.15 K, x1 = 0.5483 | 2.171
303.15 K, x1 = 0.64 | 2.061
303.15 K, x1 = 0.6669 | 1.898
303.15 K, x1 = 0.7228 | 1.983
303.15 K, x1 = 0.8002 | 1.739
303.15 K, x1 = 0.8098 | 1.901
303.15 K, x1 = 0.8795 | 1.827
303.15 K, x1 = 0.9231 | 1.722
303.15 K, x1 = 0.9413 | 1.754
313 K, x1 = 0.1163 | 2.459
313 K, x1 = 0.203 | 2.239
313 K, x1 = 0.4013 | 1.891
313 K, x1 = 0.4964 | 1.793
313 K, x1 = 0.5978 | 1.719
313 K, x1 = 0.6873 | 1.666
313 K, x1 = 0.7968 | 1.593
313 K, x1 = 0.9124 | 1.574
